Data as given in ChEMBL document CHEMBL4261609, “Chemistry-driven glycoscience” (Bioorg Med Chem, 2018).

Key:
CD209 antigen = target: T1, CD209 antigen (Homo sapiens, UniProt Q9NNX6); assay: Inhibition of DC-SIGN (unknown origin)
T1 sequence (Q9NNX6 whole entry): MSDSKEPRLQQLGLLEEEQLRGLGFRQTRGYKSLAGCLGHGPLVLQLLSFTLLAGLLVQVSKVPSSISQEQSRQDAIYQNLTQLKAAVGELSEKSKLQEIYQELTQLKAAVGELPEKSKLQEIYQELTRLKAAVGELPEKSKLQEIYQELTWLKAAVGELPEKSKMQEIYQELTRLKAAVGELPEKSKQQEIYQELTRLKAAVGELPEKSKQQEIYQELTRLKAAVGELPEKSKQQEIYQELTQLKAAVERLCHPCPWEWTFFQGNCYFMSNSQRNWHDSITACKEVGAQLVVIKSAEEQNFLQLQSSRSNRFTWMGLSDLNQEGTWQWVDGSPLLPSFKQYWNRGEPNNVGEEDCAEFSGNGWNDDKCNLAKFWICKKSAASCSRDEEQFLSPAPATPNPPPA

[1] = target: T2, L-selectin (Homo sapiens) (UniProt P14151); assay: Inhibition of human L-selectin transfected in mouse 300.19 cells assessed as decrease in protein-mediated cell rolling on GlyCAM-1 or PNAd preincubated for 5 mins followed by cell perfusion through laminar flow chamber coated with GlyCAM-1 or PNAd relative to control; format: cell-based
T2 sequence (whole entry): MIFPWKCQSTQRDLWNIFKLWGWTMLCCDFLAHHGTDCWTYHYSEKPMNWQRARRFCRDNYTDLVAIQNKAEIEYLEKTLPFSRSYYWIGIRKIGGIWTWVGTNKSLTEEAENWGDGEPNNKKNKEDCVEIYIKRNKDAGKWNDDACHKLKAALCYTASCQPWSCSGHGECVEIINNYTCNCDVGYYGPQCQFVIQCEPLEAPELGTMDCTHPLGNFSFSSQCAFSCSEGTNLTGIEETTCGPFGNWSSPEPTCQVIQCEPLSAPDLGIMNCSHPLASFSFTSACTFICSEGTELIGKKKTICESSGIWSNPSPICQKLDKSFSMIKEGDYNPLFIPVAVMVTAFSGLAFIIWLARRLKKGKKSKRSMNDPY

| SMILES | fold change (FC) [1] | further results |
| --- | --- | --- |
| CC(=O)N[C@@H]1C(O)O[C@H](CO)[C@@H](O)[C@@H]1O (some centres undefined) |  | Ki (CD209 antigen): 11 mM |
| NC(=O)[C@@H](CCC(=O)O)NC(=O)[C@H]1C[C@@H](O)[C@H](O)[C@H](O)[C@H]1SCCCCSCc1cccc(F)c1 |  | IC50 (CD209 antigen): 3.2 mM |
| CCCO[C@@H]1O[C@H](CO)[C@@H](O[C@@H]2O[C@H](CO)[C@H](O)[C@H](O[C@]3(C(=O)O)C[C@H](O)[C@@H](NC(C)=O)[C@H]([C@H](O)[C@H](O)CO)O3)[C@H]2O)[C@H](O[C@@H]2O[C@@H](C)[C@@H](O)[C@@H](O)[C@@H]2O)[C@@H]1O | 1 |  |
| CCCO[C@@H]1O[C@H](COS(=O)(=O)O)[C@@H](O[C@@H]2O[C@H](CO)[C@H](O)[C@H](O[C@]3(C(=O)O)C[C@H](O)[C@@H](NC(C)=O)[C@H]([C@H](O)[C@H](O)CO)O3)[C@H]2O)[C@H](O[C@@H]2O[C@@H](C)[C@@H](O)[C@@H](O)[C@@H]2O)[C@@H]1O | 3 |  |
